Drawing on patent publication US20190194179A1, “ANTIBIOTIC COMPOUNDS” (DISCUVA LTD., priority 2016, published 2019), this text covers IC50 for eight compounds.

Where two headings read alike, the source gives them in different places. A value given as a limit tells only on which side of the number the result lay.

Assay type in all cases: cell-based
For one assay, the system named is Neisseria gonorrhoeae. Description: EC50 determination: plate-based broth growth assay (absorbance at 600 nm) of Neisseria gonorrhoeae. To be noted: absorbance 600 nm after 20 hours at 37° C./5% CO2, read-out: IC50 (Inhibitory concentration) against Neisseria gonorrhoeae. Summed up: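 Mid-log culture diluted to ~10^5 cells/ml as inoculum and grown 20 hours at 37° C./5% CO2 across a 10-point compound dilution series. Growth read as absorbance at 600 nm; EC50 taken from transformed data as the concentration giving 50% response relative to no-compound controls.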

The subject of a further assay is Staphylococcus aureus. Description: EC50 determination: broth growth assay of Staphylococcus aureus (Isosensitest broth). Conditions: Table 1, panel of bacteria, 37° C., read-out: IC50 concentration against Staphylococcus aureus. As for the experimental part: (§1) Actively growing Neisseria gonorrhoeae on GC agar (based on; Spence et. al. (2008): Curr. Protoc. Microbiol. 8:4A.1.1-4A.1.26) plates are harvested and transferred to GC broth (based on; Spence et al (2008): Curr. Protoc. Microbiol. 8:4A.1.1-4A.1.26) to generate a liquid stock. This culture is allowed to establish and grow to mid-log phase (at 37° C./5% CO2), finally this culture is diluted (˜10^5 cells/ml) to generate a seed inoculum to establish plate-based broth assays. EC50 values were determined by assaying growth (absorbance read at 600 nm, after 20 hours at 37° C./5% CO2) of Neisseria gonorrhoeae across a 10-point dilution series of the test compound. The EC50 value is determined from transformed data to identify the concentration of compound giving a 50% response relative to control samples (no compound).
(§2) EC50 determination for Staphylococcus aureus and Enterococcus Spp. followed a similar procedure but were conducted using Isosensitest broth (Oxoid) with incubations at 37° C. in atmospheric air. Final absorbance reads were conducted during the late exponential growth phase.

The subject of a further assay is Enterococcus Spp. In words: EC50 determination: broth growth assay of Enterococcus Spp. (Isosensitest broth). To be noted: Table 1, panel of bacteria, 37° C. As for the experimental part: as §1, §2
Setting [1] is: Enterococcus faecalis, read-out: IC50 concentration against Entercoccus faecalis.
Where [2] appears, read: Enterococcus faecium, read-out: IC50 concentration against Enterococcus faecium.

Take `FC(F)(F)c1ccc2oc(Nc3nc4cnccc4o3)nc2c1` [Example 60, N-(5-(triFluoromethyl)benzo[d]oxazol-2-yl)oxazolo[4,5-c]pyridin-2-amine]: the IC50 in the assay on Neisseria gonorrhoeae is ≤ 0.1 µM; in the assay on Staphylococcus aureus it was ≤ 10 µM; with Enterococcus Spp. (setting [1]), ≤ 1 µM; with Enterococcus Spp. (setting [2]), ≤ 10 µM.
Turning to `FC(F)(F)c1ccc2oc(Nc3nnco3)nc2c1` [Example 67, N-(1,3,4-Oxadiazol-2-yl)-5-(trifluoromethyl)benzo[d]oxazol-2-amine], the IC50 with Neisseria gonorrhoeae is ≤ 0.1 µM; with Staphylococcus aureus, ≤ 1 µM; with Enterococcus Spp. (setting [1]), ≤ 10 µM; with Enterococcus Spp. (setting [2]) it was ≤ 1 µM.
For `FC(F)(F)c1cc2nc(Nc3nnc(CN4CCCC4)o3)oc2cc1Cl` [Example 80, 6-Chloro-N-(5-(pyrrolidin-1-ylmethyl)-1,3,4-oxadiazol-2-yl)-5-(trifluoromethyl)benzo[d]oxazol-2-amine], the IC50 in the assay with Neisseria gonorrhoeae is ≤ 0.1 µM; with Staphylococcus aureus it was ≤ 1 µM; in the assay with Enterococcus Spp. (setting [1]) it was ≤ 1 µM; with Enterococcus Spp. (setting [2]) it was ≤ 10 µM.
Regarding `FC(F)(F)c1ccc2nc(Nc3nnc(C4CC4)o3)oc2c1` [Example 105, N-(5-Cyclopropyl-1,3,4-oxadiazol-2-yl)-6-(trifluoromethyl)benzo[d]oxazol-2-amine], the IC50 is ≤ 0.1 µM with Neisseria gonorrhoeae, ≤ 1 µM with Staphylococcus aureus, ≤ 1 µM in the assay with Enterococcus Spp. (setting [1]) and ≤ 1 µM in the assay on Enterococcus Spp. (setting [2]).
For `Cc1nnc(Nc2nc3cc(C(F)(F)F)ccc3o2)[nH]1` [Example 117, N-(5-Methyl-4H-1,2,4-triazol-3-yl)-5-(trifluoromethyl)benzo[d]oxazol-2-amine], the IC50 in the assay with Neisseria gonorrhoeae was ≤ 1 µM; with Staphylococcus aureus, ≤ 1 µM; in the assay with Enterococcus Spp. (setting [1]), ≤ 10 µM; with Enterococcus Spp. (setting [2]), ≤ 10 µM.
As for `Clc1ccc2nc(Nc3nc4cnccc4o3)oc2c1` [Example 159, N-(6-Chlorobenzo[d]oxazol-2-yl)oxazolo[4,5-c]pyridin-2-amine], the IC50 in the assay on Neisseria gonorrhoeae, with Staphylococcus aureus, with Enterococcus Spp. (setting [1]) and in the assay with Enterococcus Spp. (setting [2]) was ≤ 100 µM each time.
Consider `FC(F)(F)c1cc2oc(Nc3nc4cc(Cl)ccc4o3)nc2cn1` [Example 165, N-(5-Chlorobenzo[d]oxazol-2-yl)-6-(trifluoromethyl) oxazolo[4,5-c]pyridin-2-amine], for which the IC50 with Neisseria gonorrhoeae is ≤ 1 µM; with Staphylococcus aureus it was ≤ 10 µM; in the assay on Enterococcus Spp. (setting [1]), ≤ 10 µM; with Enterococcus Spp. (setting [2]), ≤ 10 µM.
On to `FC(F)(F)c1cc2[nH]c(Nc3nc4ccccc4o3)nc2cn1` [Example 170, N-(6-(Trifluoromethyl)-1H-imidazo[4,5-c]pyridin-2-yl)benzo[d]oxazol-2-amine], for which the IC50 is ≤ 1 µM in the assay on Neisseria gonorrhoeae, ≤ 10 µM with Staphylococcus aureus, ≤ 10 µM with Enterococcus Spp. (setting [1]) and ≤ 10 µM in the assay on Enterococcus Spp. (setting [2]).
